Test results: PubChem BioAssay (NCI)
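Growth conditions: 96-well plates. Treatment: test compound, 48 hours, 5 concentrations. Analysis: linear interpolation between bracketing concentrations; unreached endpoints set to highest concentration. The concentration for 50% growth inhibition is given as GI50. At the TGI there is no net growth.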

Assays:
Test in all cases: NCI tumour cell line growth inhibition, 48 h
SK-OV-3 ovarian = system: SK-OV-3 ovarian
SF-268 CNS = system: SF-268 CNS
UACC-62 melanoma = system: UACC-62 melanoma
TK-10 renal = system: TK-10 renal
RPMI-8226 leukemia = system: RPMI-8226 leukemia
HOP-92 NSCLC = system: HOP-92 NSCLC
MALME-3M melanoma = system: MALME-3M melanoma
786-0 renal = system: 786-0 renal
OVCAR-4 ovarian = system: OVCAR-4 ovarian
HCC-2998 colon = system: HCC-2998 colon

| Structure (SMILES) | GI50 (SK-OV-3 ovarian) | TGI (SK-OV-3 ovarian) | GI50 (SF-268 CNS) | TGI (SF-268 CNS) | GI50 (UACC-62 melanoma) | TGI (UACC-62 melanoma) | GI50 (TK-10 renal) | TGI (TK-10 renal) | GI50 (RPMI-8226 leukemia) | TGI (RPMI-8226 leukemia) | GI50 (HOP-92 NSCLC) | TGI (HOP-92 NSCLC) | GI50 (MALME-3M melanoma) | TGI (MALME-3M melanoma) | GI50 (786-0 renal) | TGI (786-0 renal) | GI50 (OVCAR-4 ovarian) | TGI (OVCAR-4 ovarian) | GI50 (HCC-2998 colon) | TGI (HCC-2998 colon) |
| --- | --- | --- | --- | --- | --- | --- | --- | --- | --- | --- | --- | --- | --- | --- | --- | --- | --- | --- | --- | --- |
| CCCOc1ccc(/C=N/Nc2cc(C)nc3ccc(Cl)cc23)cc1 | 1.78 µM | 3.18 µM | 2.24 µM | 4.19 µM | 1.76 µM | 3.24 µM | 2.04 µM | 3.47 µM | 1.81 µM | 3.99 µM | 1.51 µM | 3.11 µM | 1.79 µM | 3.26 µM | 1.86 µM | 3.42 µM | 1.71 µM | 3.2 µM | 2.03 µM | 3.53 µM |
| C/C(=N\O)c1cccc(Nc2cc(-c3ccccc3)nc3c(O)cccc23)c1 | 2.62 µM | 25 µM | 4.38 µM | 39.5 µM | 1.64 µM | 16.8 µM | 8.44 µM | 47.7 µM | 2.46 µM | 7.98 µM | 1.91 µM | 13.7 µM | 5.67 µM | 25.4 µM | 3.07 µM | 11.5 µM | 8.19 µM | 37.4 µM | 3.68 µM | 14.2 µM |
| O=C(O)c1ccc(C(=O)O)c(C(=O)O)c1.[NH-]C1CCCCC1[NH-].[Pt+2] | 40.9 µM | > 97.3 µM | 7.54 µM | > 87.4 µM | 2.82 µM | 36 µM | 25.6 µM | 85.8 µM | 0.581 µM | 48.9 µM | 14.8 µM | 53.9 µM | 1.67 µM | 22.8 µM | 1.99 µM | > 74.7 µM | 7.73 µM | 50.2 µM | 13.4 µM | 48.7 µM |
| CCCCN(CCCC)CC(C(=O)Nc1ccc([N+](=O)[O-])cc1[N+](=O)[O-])/C(C)=N\NC(=O)C[N+](C)(C)C (stereo not given) |  | > 100 µM |  | > 100 µM |  | > 100 µM |  | > 100 µM |  | 73.8 µM |  | > 100 µM |  | > 100 µM |  | > 100 µM |  | > 100 µM |  | > 100 µM |
| Oc1ccc(Cc2ccc(O)c(C3CC(c4ccc(Cl)cc4)=NN3)c2)cc1C1CC(c2ccc(Cl)cc2)=NN1 (stereo not given) | 3.61 µM | > 100 µM | 3.32 µM | 27.2 µM | 3.14 µM | 13.4 µM | 4.79 µM | > 100 µM | 3.89 µM | > 100 µM | 3.39 µM | 20.9 µM | 5.03 µM | > 100 µM | 3.53 µM | > 40.2 µM | 2.97 µM | > 44.6 µM | 3.71 µM | > 30.8 µM |
| Cc1ccc(NC(=O)/C(=N\NC(N)=S)C(C#N)c2ccccc2C)cc1C (stereo not given) |  | > 100 µM |  | > 100 µM |  | > 100 µM |  | > 100 µM |  | > 100 µM |  | > 100 µM |  | > 100 µM |  | > 100 µM |  | > 100 µM |  | > 100 µM |
| O=[N+]([O-])c1ccc(/C(Cl)=C/c2ccc(/C=C(\Cl)c3ccc([N+](=O)[O-])cc3[N+](=O)[O-])cc2)c([N+](=O)[O-])c1 |  | > 100 µM |  | > 100 µM |  | > 100 µM |  | > 100 µM |  | > 100 µM |  | > 100 µM |  | > 100 µM |  | > 100 µM |  | > 100 µM |  | > 100 µM |
| N#CC(/C(=N/NC(N)=S)C(=O)Nc1cccc(Cl)c1)c1ccccc1 (stereo not given) |  | > 100 µM |  | > 100 µM |  | > 100 µM |  | > 100 µM |  | > 100 µM |  | > 100 µM |  | > 100 µM |  | > 100 µM |  | > 100 µM |  | > 100 µM |
| CCOC(=O)[C@@H](C)C[C@H](Cc1ccccc1)NC(=O)c1csc([C@@H](C[C@H](C(C)C)N(C)C(=O)[C@@H](NC(=O)[C@H]2C[C@H](O)CCN2C)C(C)C)OC(C)=O)n1 | 0.00474 µM | > 16.7 µM | 0.00881 µM | > 16.7 µM | < 0.00167 µM | > 16.7 µM | 0.426 µM | > 16.7 µM | < 0.00167 µM | > 16.7 µM | 0.00663 µM | > 4.46 µM | 0.00208 µM | > 16.7 µM | 0.0273 µM | > 16.7 µM | 0.0259 µM | > 16.7 µM | 0.00295 µM | > 16.7 µM |
| CCN(CC)CC(O)COc1c(Br)c(Br)c(Br)c2c1OC(C)(C)C2 (stereo not given) | 16.7 µM | 36.4 µM | 8.35 µM | 26.3 µM | 1.9 µM | 3.47 µM | 4.19 µM | 14.9 µM | 2.01 µM | 4.45 µM | 1.35 µM | 6.05 µM | 2.28 µM | 5.14 µM | 3.13 µM | 11.9 µM | 6.56 µM | 22.8 µM | 3.42 µM | 9.23 µM |
| COc1cc2c(cc1OCCCCn1c(-c3cccs3)nc3ccccc31)N=C[C@@H]1CCCN1C2=O | 3.32 µM | 9.19 µM | 1.8 µM | 5.48 µM | 1.57 µM | 3.08 µM | 2.09 µM | 6.74 µM | 0.314 µM | 1.62 µM | 1.33 µM | 5.46 µM | 1.74 µM | 3.27 µM | 1.71 µM | 5.9 µM | 1.61 µM | 4.67 µM | 2.08 µM | 4.5 µM |
| NC(=N\N=C/c1ccc(Cl)cc1Cl)/C(N)=N\N=C/c1ccc(Cl)cc1Cl | 1.16 µM | 11.3 µM | 50.4 µM | > 100 µM | > 69.2 µM | > 100 µM | 1.25 µM | 16.7 µM | > 100 µM | > 100 µM | 6.54 µM | 56.1 µM | 41.3 µM | > 100 µM | 1.32 µM | 16.7 µM | 0.34 µM | 1.65 µM | > 94.7 µM | > 100 µM |
| O=Cc1ccc(-c2ccc(-c3ccc(C=O)o3)[se]2)o1 | > 85.8 µM | > 100 µM | > 95.4 µM | > 100 µM | > 100 µM | > 100 µM | 7.73 µM | > 100 µM | > 100 µM | > 100 µM | 57.1 µM | > 100 µM | > 100 µM | > 100 µM | 53.2 µM | > 100 µM | > 100 µM | > 100 µM | > 100 µM | > 100 µM |
